Data set [1] can be described thus: Pharmacokinetics after a single oral dose in SD rats. The following applies: Sprague-Dawley, rat, plasma, single oral dose in 0.5% methylcellulose. It is filed as in vivo. An excerpt:
(§1) The pharmacokinetics and pharmacodynamics of test compounds after a single oral dose were investigated in SD rats, Beagle dog and Cynomolgus monkey. SD Rats (200-250 g) were purchased from Beijing Vital River Laboratory Animal Technology Co., Ltd. Male Beagle Dog, 6-9 kg, were purchased from Beijing Mashall. Male Cynomolgus monkeys, 3-5 kg, were purchased from Suzhou Xishan Zhongke Drugs Research and Development Co., Ltd. Following arrival, the animals were acclimated for 7 days in individual cages maintained at ambient temperature, 34 to 68% relative humidity, and 12-h light/dark cycles. Just prior to dose administration the rats were fasted overnight with free access to water. Animals were given 10 mL/kg of formulated compound in 0.5% methylcellulose (MC) by oral gavage, and the animals were fed four hours after dosing. The animals were manually restrained at the designated time points (pre-dose, 0.5, 1, 3, 6, 9, 12, and 24 h post-dose) to collect blood. Approximately 120 μL of blood was collected via orbital sinus into K2EDTA tubes. The blood samples were centrifuged at 5000 rpm for 10 min at 4° C. to obtain plasma samples.
To determine the compound concentration in the plasma samples, a 10× calibration standard of compound were prepared by serial dilution in DMSO: 20000, 10000, 5000, 2000, 1000, 500, 200, 100, 50, 20, and 10 ng/mL. 3 μL of calibration standard solution was added into 27.0 μL of blank plasma in 1.5-mL microcentrifuge tubes to generate 1× calibration standards. The 30.0 μL of standards or study plasma was mixed with 200 μL of acetonitrile (containing 5 ng/mL verapamil for internal control) in a 1.5-mL microcentrifuge tube. After vertexing for 1 minute and centrifuging at 10000 rpm for 10 min, 180 μL of supernatant was transferred into a 96-well plate and the compound concentration in the plasma was quantitated using LC/MS/MS together with standards. Briefly, 1 μL of the solutions were injected for LC-MS/MS analysis using an Agilent Zorbax C18 column (50×2.1 mm, 3.5 μm) with mobile phase A [5 mM NH4Ac (0.1% FA)] and phase B [Methanol (0.1% FA)]. Mass spectrometer parameters optimization for compound was performed by infusing standard diluted at 1 μg/mL in water/methanol (1/1, v/v) directly in the ionization source at a flow of 10 μL/min. Quantitative data were acquired in multiple reaction monitoring (MRM) positive APCI mode.

Data set [2] concerns the target T1, Autotaxin (Rattus norvegicus, UniProt Q64610).
T1 construct: from tissue; host or cells: SD rats in vivo; plasma sampled after a single oral dose
Description: Pharmacodynamics: LPA 18:2 inhibition in plasma of SD rats after oral dose. The following applies: single oral dose, LPA18:2 inhibition vs plasma concentration of compound, read-out: In vivo rat IC50 (LPA 18:2) (converted).
From the text: as §1
Autotaxin is a secreted phosphodiesterase that converts lysophosphatidylcholine (LPC) into lysophosphatidic acid (LPA), and LPA 18:2 formation was used to evaluate the efficacy of autotaxin inhibitors. Therefore, the LPA 18:2 formation in response to drug administration was analyzed in each time point to assess the pharmacodynamics of test compounds. To determine the LPA18:2 concentration in study plasma, a 10× calibration standard of LPA 18:2 were prepared by serial dilution in butyl alcohol: 20000, 10000, 5000, 2000, 1000, 500, 200, 100, 50, 20, and 10 ng/mL. 3 μL of calibration standard solution was added into 27.0 μL of blank plasma in 1.5-mL microcentrifuge tubes to generate 1× calibration standards. The 30.0 μL of standards or study plasma was added into 1.5-mL microcentrifuge tubes. 200 μL of butyl alcohol (containing 25.0 ng/mL LPA17:0 for internal control) was added into each 1.5-mL microcentrifuge tube containing study plasma or calibration standards. After vortexing for 1 minute and centrifuging at 10000 rpm for 10 min, 180 μL of supernatant was transferred into a 96-well plate and the LPA18:2 concentration in the plasma was quantitated using LC/MS/MS together with standards. Briefly, 8 μL of the solutions were injected for LC-MS/MS analysis using an ACQUITY UPLC BEH C18 column (2.1×50 mm, 1.7 μm) with mobile phase A [20 mM NH4OAC in water (0.1% FA)] and phase B [5 mM NH4OAC in water/0.2% FA in ACN=5:95]. Mass spectrometer parameters optimization for LPA18:2 were performed by infusing standard diluted at 1 μg/mL in butyl Alcohol directly in the ionization source, at a flow of 10 μL/min. Deprotonated molecular ion at m/z 433.2 ([M−H]−) for LPA18:2, and abundant product ion at m/z 152.8 for LPA18:2 were obtained. Quantitative data were acquired in multiple reaction monitoring (MRM) negative electrospray ionization mode
The percentage of LPA18:2 inhibition was plotted against the corresponding concentration of compound and the IC50 was calculated through non-linear regression fitting.

The target of data set [3] is T2, Autotaxin (Homo sapiens, UniProt Q13822).
T2 construct: from tissue; host or cells: pooled human plasma
As to the kind of experiment: LPA formation in pooled human plasma (ex vivo autotaxin inhibition). The settings on record: 2 hours incubation. It is filed as biochemical. The gist of the method:
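Ex vivo: LPA 18:2 and 20:4 levels in compound-treated versus untreated pooled human plasma after 2 h incubation, measured by butanol extraction and negative-mode MRM LC/MS/MS against calibration standards. IC50 from non-linear fit of inhibition versus concentration.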

Like-named read-outs stand apart in the source and are kept apart here.

Usually AUC stands for concentration integrated over time. In general, Cmax refers to the highest concentration seen after dosing. Broadly, the IC50 is the concentration at which inhibition is half-maximal. For the compound `CCc1nn2cc(C)c(N3CC4(CN(C(=O)[C@H]5CCOC5)C4)C3)cc2c1N(C)c1nc(-c2ccc(F)cc2)c(C#N)s1` [Example 97, (S)-2-((2-ethyl-6-methyl-5-(6-(tetrahydrofuran-3-carbonyl)-2,6-diazaspiro[3.3]heptan-2-yl)pyrazolo[1,5-a]pyridin-3-yl)(methyl)amino)-4-(4-fluorophenyl)thiazole-5-carbonitrile], in data set [1], the area under the curve (AUC) is 4690 ± 526 ng·h/mL. Further, the highest concentration (Cmax) in data set [1] was 336 ± 33.8 ng/mL. Besides, the half-life in data set [1] (read-out: T½ (converted)) was 5.41 ± 1.7 h. For the same compound, the IC50 is 20 nM on Autotaxin [2]; at most 100 nM on Autotaxin [3] (LPA 18:2 by LC/MS/MS, read-out: LPA formation (18:2) (IC50)); at most 100 nM at Autotaxin [3] (LPA 20:4 by LC/MS/MS, read-out: LPA formation (20:4) (IC50)).

These data come from patent publication US10711000B2 (Fronthera U.S. Pharmaceuticals LLC, priority 2018, dated 2020).
